In patent publication US11702401B2, “Compounds and methods of use” (Medivation Technologies LLC, priority 2014, dated 2023):

What was measured:
[1] = Plasma and brain concentrations in male mice at 0.5 and 1 h; assay type: in vivo
[2] = Pharmacokinetics and bioavailability in male mice, oral single dose; assay type: in vivo; conditions: oral 10 mg/kg

| Compound | Brain Concentration ([1]; IV, 0.5 h) | Plasma Concentration ([1]; IV, 0.5 h) | Brain Concentration ([1]; IV, 1 h) | Plasma Concentration ([1]; IV, 1 h) | Brain Concentration ([1]; PO, 0.5 h) | Plasma Concentration ([1]; PO, 0.5 h) | Brain Concentration ([1]; PO, 1 h) | Plasma Concentration ([1]; PO, 1 h) | AUClast [2] | Tmax [2] |
| --- | --- | --- | --- | --- | --- | --- | --- | --- | --- | --- |
| C[C@H](O)CNC(=O)c1cnccc1Nc1cc(-c2cc(Cl)ccc2F)ncc1N(C)C (single isomer, unassigned) [16a] | 48 nM | 3040 nM | 19 nM | 1230 nM | 48 nM | 3420 nM | 25 nM | 1690 nM | 7.50 µM·h | 30 min |
| CC(C)c1cnc(-c2cc(Cl)ccc2F)cc1Nc1ccncc1C(=O)NC(CO)CO [compound 22, 4-[[2-(5-chloro-2-fluoro-phenyl)-5-isopropyl-4-pyridyl]amino]-N-[2-hydroxy-1-(hydroxymethyl)ethyl]pyridine-3-carboxamide] | 7 nM | 1690 nM | 5 nM | 967 nM | 20 nM | 7070 nM | 15 nM | 3530 nM |  |  |
